# Assay results published in US9408856B2, “Topical steroidal formulations” (Temple University—Of The Commonwealth System of Higher …, priority 2008, dated 2016).
# Where “and” joins values, the source holds several entries; their conditions need not be identical. Equal entries are not always repeated.
# How the values were obtained:
# [1] = system: TPA-stimulated epidermal DNA synthesis in mouse epidermis; assay: TPA-induced epidermal DNA synthesis in mouse epidermis, transdermal fluasterone; format: in vivo, CD-1 mice; details: for cpm/μg DNA: 20 h, single mice and group mean
# Description: In dose-response experiments the anti-hyperplastic efficacy of fluasterone in TPA-treated mouse epidermis to determine bioavailability following different routes of administration was measured. Mice were treated with a single dose of fluasterone (either orally, subcutaneously, or transdermally) followed by a single application of TPA to the shaved back one hour latter. In case of transdermal administration, fluasterone is applied in a topical formulation to the shaved abdomen to allow for systemic absorption to the back of the animal. Twenty hours after TPA application, the mice are injected with 60 μCi of [3H] thymidine, sacrificed 20 minutes later, and a 2×2 cm2 of skin from the shaved back is excised and processed for the determination of the amount of [3H] thymidine incorporated per unit of epidermal DNA. (Hennings et. al., Cancer Res. 28:543-552, 1968).
# Female CD-1 mice, 40-43 days old, were obtained from Charles River Laboratories, Kingston, N.Y. The mice were housed two per cage in plastic shoebox cages on Absorbdri bedding with 12 hours of alternating light and dark in the Central Animal Facility. The mice had ad libitum access to Purina 5015 chow and acidified tap water (pH S 2.6). The mice were allowed to acclimate to the facility for approximately two weeks prior to use in an experiment. […]
# The mice were weighed, marked with magic marker on the tail, and shaved on the back and the abdomen one day prior to treatment. Only those mice showing no hair regrowth were used in the experiment. Fluasterone was applied to the shaved abdomen one hour before TPA was applied to the shaved back. The mice were anesthetized and on their backs prior to topical application of TPA. […]
# The mice were anesthetized with Isoflurane, and then were given an intramuscular injection of 0.1 mL solution of ketamine (50 mg/kg), xylazine (10 mg/kg) and atropine (0.1 mg/kg). Approximately 10 minutes after the i.m. injection (after the mice could not turn over when placed on their backs), the mice were treated with 5 μL of a 12.5 mg/mL fluasterone/carbitol solution to give a dose of 2.5 mg/kg. The mice were anesthetized and on their backs for approximately 30 minutes after application of fluasterone/carbitol solution. One hour after the application of fluasterone/carbitol solution, 2 μg of TPA dissolved in. 0.2 mL of acetone was applied to the shaved area on the back of each mouse. […]
# The mice were anesthetized with Isoflurane, and then were given an intramuscular injection of 0.1 mL solution of ketamine (50 mg/kg), xylazine (10 mg/kg) and atropine (0.1 mg/kg). Approximately 10 minutes after the i.m. injection (after the mice could not turn over when placed on their backs), the mice were treated with 2.5 μl, of a 12.5 mg/mL fluasterone/carbitol solution to give a dose of 1.25 mg/kg. The mice were anesthetized and on their backs for approximately 30 minutes after application of fluasterone/carbitol solution. One hour after the application of fluasterone/carbitol solution, 2 μg of TPA dissolved in 0.2 mL of acetone was applied to the shaved area on the back of each mouse.
# The mice were anesthetized with Isoflurane, and then were given an intramuscular injection of 0.1 mL solution of ketamine (50 mg/kg), xylazine (10 mg/kg) and atropine (0.1 mg/kg). Approximately 10 minutes after the i.m. injection (after the mice could not turn over when placed on their backs), the mice were treated with 10 μL of a 12.5 mg/mL fluasterone/Cremophor EL solution to give a dose of 5 mg/kg. The mice were anesthetized and on their backs for approximately 30 minutes after application of fluasterone/Cremophor EL solution. One hour after the application of fluasterone/Cremophor EL solution, 2 μg of TPA dissolved in 0.2 mL of acetone was applied to the shaved area on the back of each mouse.
# The mice were anesthetized with Isoflurane, and then were given an intramuscular injection of 0.1 mL solution of ketamine (50 mg/kg), xylazine (10 mg/kg) and atropine (0.1 mg/kg). […]
# [2] = system: TPA-stimulated epidermal DNA synthesis in mouse epidermis; assay: TPA-induced epidermal DNA synthesis in mouse epidermis, oral fluasterone; format: in vivo, CD-1 mice; details: Table 20; TPA 2 μg topical after sesame oil and suspension vehicle p.o. only; 20 h; group mean
SMILES,"cpm/μg DNA ([1]; Cremophor EL solution, 1.25 mg/kg transdermal (abdomen) 1 h before 2 μg TPA (back), 1.25 mg/kg)","cpm/μg DNA ([1]; Cremophor EL solution, 5 mg/kg transdermal (abdomen) 1 h before 2 μg TPA (back), 5 mg/kg)","lowest effective dose ([1]; Tween 80:ethanol (50:50 v/v) solution, transdermal) [mg/kg]","cpm/μg DNA ([1]; carbitol solution, 1.9 mg/kg transdermal (abdomen) 1 h before 2 μg TPA (back), 1.9 mg/kg)","cpm/μg DNA ([1]; carbitol solution, 5 mg/kg transdermal (abdomen) 1 h before 2 μg TPA (back), 5 mg/kg)","cpm/μg DNA ([1]; ethanol:limonene:isopropyl myristate (81:15:4) solution, 1.5 mg/kg transdermal (abdomen) 1 h before 2 μg TPA (back), 1.5 mg/kg)",transdermal potency compared with s.c. administration in abolishing TPA-stimulated hyperplasia ([1]; mice),transdermal dose that suppresses TPA-stimulated epidermal [3H]thymidine incorporation and/or epidermal DNA content ([1]; topical solutions and suspension applied to abdomen) [mg/kg],cpm/μg DNA ([1]; TPA 2 μg (back) after carbitol vehicle only),cpm/μg DNA [2] [cpm/μg DNA],dpm/μg DNA [2] [dpm/μg DNA]
"C[C@]12CCCCC1=CC[C@@H]1[C@@H]2CC[C@]2(C)C(=O)[C@H](F)C[C@@H]12 [Fluasterone, 16α-fluoro-5-androsten-17-one]",507.3 cpm/μg DNA and 414.3 cpm/μg DNA and 460.1 ± 65.8 cpm/μg DNA,116.7 cpm/μg DNA and 147.4 cpm/μg DNA and 132.1 ± 21.7 cpm/μg DNA,≤ 2.5,365.9 cpm/μg DNA and 227.7 cpm/μg DNA and 296.8 ± 97.7 cpm/μg DNA,533.8 cpm/μg DNA and 467.1 cpm/μg DNA and 500.5 ± 47.2 cpm/μg DNA,226.9 cpm/μg DNA and 147.5 cpm/μg DNA,as potent as subcutaneous injection,2.5,,,
"CCCCCCCCCCCCCC(=O)O[C@@H]1[C@@H](C)[C@@]2(O)[C@@H](C=C(CO)C[C@]3(O)C(=O)C(C)=C[C@@H]23)[C@@H]2C(C)(C)[C@]12OC(C)=O [TPA, 12-O-tetradecanoylphorbol-13-acetate, reference compound]",,,,,,,,,331.5 cpm/μg DNA and 353.6 cpm/μg DNA and 342.6 ± 15.6 cpm/μg DNA,374.1 ± 16.8,603.4 ± 36.8
